From BindingDB's records for doi:10.1021/jm9804127 (Glaxo Wellcome Research and Development, 1999) come the findings set out here.

pEC50: −log10 of the molar value.

Experiment [1] is described as follows: Ability to promote differentiation of C3H10T1/2 stem cells to adipocytes using lipogenesis assay mediated through activation of Peroxisome proliferator activated receptor gamma.
Experiment [2] concerns the target T1, Peroxisome proliferator-activated receptor gamma (Homo sapiens, UniProt P37231).
T1 sequence (P37231 whole entry): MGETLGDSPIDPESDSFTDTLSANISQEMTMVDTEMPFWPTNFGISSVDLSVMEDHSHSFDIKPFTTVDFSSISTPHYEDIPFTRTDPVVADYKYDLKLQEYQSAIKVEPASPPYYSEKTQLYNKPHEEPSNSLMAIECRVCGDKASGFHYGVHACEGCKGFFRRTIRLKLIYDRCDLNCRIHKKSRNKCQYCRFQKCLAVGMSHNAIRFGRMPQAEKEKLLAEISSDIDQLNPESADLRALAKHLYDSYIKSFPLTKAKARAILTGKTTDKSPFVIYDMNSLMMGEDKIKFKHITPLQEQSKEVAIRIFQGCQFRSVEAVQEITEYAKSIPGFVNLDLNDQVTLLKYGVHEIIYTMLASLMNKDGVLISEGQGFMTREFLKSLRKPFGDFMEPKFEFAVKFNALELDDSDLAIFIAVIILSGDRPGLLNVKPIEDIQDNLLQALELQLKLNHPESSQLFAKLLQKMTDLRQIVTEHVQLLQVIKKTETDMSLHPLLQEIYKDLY
As to the kind of experiment: Ability to promote differentiation of C3H10T1/2 stem cells to adipocytes using lipogenesis assay mediated through activation of Peroxisome proliferator activated receptor gamma.

Turning to `Cc1c(C)c2c(c(C)c1O)CCC(C)(COc1ccc(C[C@H](Nc3ccccc3C(=O)c3ccccc3)C(=O)O)cc1)O2` (some centres not stated), in experiment [1], the negative logarithm of the EC50 (pEC50) was 6.44.

`CN(CCOc1ccc(CC(Nc2ccccc2C(N=N)c2ccccc2)C(=O)O)cc1)c1ccccn1` (configuration not stated) gave a negative-log EC50 (pEC50) in experiment [2] of 5.91.

As to `CN(CCOc1ccc(CC(Nc2cccc3c2C(=O)c2ccccc2-3)C(=O)O)cc1)c1nc2ccccc2o1` (configuration not stated), the pEC50 in experiment [1] was 6.24.

On to `CN(CCOc1ccc(CC(Nc2ccccc2S(=O)(=O)c2ccccc2)C(=O)O)cc1)c1nc2ccccc2o1` (configuration not stated), for which the negative logarithm of the EC50 (pEC50) in experiment [1] was 5.66.

As for `CN(CCOc1ccc(CC(Nc2ccccc2C(=O)Cc2ccccc2)C(=O)O)cc1)c1nc2ccccc2o1` (configuration not stated), the pEC50 in experiment [1] was 7.33.

Consider `CN(CCOc1ccc(CC(Oc2ccccc2C(=O)c2ccccc2)C(=O)O)cc1)c1nc2ccccc2o1` (configuration not stated), for which the pEC50 in experiment [1] is 5.94.

Consider `O=C(c1ccccc1)c1ccccc1N[C@@H](Cc1ccc(OCc2ccccc2)cc1)C(=O)O`, for which, in experiment [1], the pEC50 is 5.82.

For the compound `CN(CCOc1ccc(CC(Nc2ccccc2C(O)c2ccccc2)C(=O)O)cc1)c1ccccn1` (configuration not stated), the pEC50 in experiment [1] is 5.88.

Compound `CCc1ccc(CCOc2ccc(C[C@H](Nc3ccccc3C(=O)c3ccccc3)C(=O)O)cc2)nc1` gave a negative-log EC50 (pEC50) in experiment [1] of 6.30.

The compound `CN(CCOc1ccc(CC(Nc2ccccc2Oc2ccccc2)C(=O)O)cc1)c1nc2ccccc2o1` (configuration not stated) showed a negative-log EC50 (pEC50) in experiment [1] of 6.33.

Consider `CN(CCOc1ccc(C[C@H](Nc2ccccc2C(=O)c2ccccc2)C(=O)O)cc1)c1nc2ccccc2o1`, for which the negative-log EC50 (pEC50) in experiment [1] is 8.36.

In experiment [1], `CC1(COc2ccc(C[C@H](Nc3ccccc3C(=O)c3ccccc3)C(=O)O)cc2)CCCCC1` gave a pEC50 of 5.94.
